Measurements: patent US7935506B2, “Method for producing a lower alkyl ester of α-L-aspartyl-L-phenylalanine” (priority 2001, dated 2011)

How the values were obtained:
Assay type in all cases: cell-based
Conditions in all cases: 37° C.
[1] = system: E. coli strain TG1 (pUC19); assay: Growth on M9 glucose minimal agar plates containing inhibitor, strain TG1 (pUC19)
Method: (§1) The pYDDG1 and pYDDG2 plasmids and the pUC19 and pAYCTER3 vectors were introduced into E. coli strain TG1. Thus the strains TG1 (pYDDG1), TG1 (pYDDG2), TG1 (pUC19) and TG1 (pAYCTER3) were obtained.
(§2) Then the ability of these strains to grow in the presence of amino acids and amino acid analogues for each strain were determined on M9 glucose minimal agar plates containing graded concentrations of inhibitor. The plates were spotted with 10^6 to 10^7 cells from an overnight culture grown in a minimal medium (supplemented with 100 μg/ml of ampicillin for plasmid strains). The growth was estimated after 44 h incubation at 37° C.

[2] = system: E. coli strain TG1 (pYDDG1); assay: Growth on M9 glucose minimal agar plates containing inhibitor, strain TG1 (pYDDG1)
Method: as §1, §2

[3] = system: E. coli strain TG1 (pYDDG2); assay: Growth on M9 glucose minimal agar plates containing inhibitor, strain TG1 (pYDDG2)
Method: as §1, §2
Note: key: +: good growth; ±: pour growth; −: no growth.

SMILES: NC(Cc1c[nH]c2ccc(F)cc12)C(=O)O (racemic) [5-fluoro-DL-tryptophane]
- Growth after 44 h TG1 (pUC19) ([1]; substrate 0.0005 mg/ml): −
- Growth after 44 h TG1 (pYDDG1) ([2]; substrate 0.0005 mg/ml): +

SMILES: NC(Cc1ccc(F)cc1)C(=O)O (racemic) [p-fluoro-DL-phenylalanine]
- Growth after 44 h TG1 (pUC19) ([1]; substrate 1.0 mg/ml): −
- Growth after 44 h TG1 (pUC19) ([1]; substrate 2.0 mg/ml): −
- Growth after 44 h TG1 (pYDDG2) ([3]; substrate 1.0 mg/ml): +
- Growth after 44 h TG1 (pYDDG2) ([3]; substrate 2.0 mg/ml): −
- Growth after 44 h TG1 (pYDDG1) ([2]; substrate 1.0 mg/ml): +
- Growth after 44 h TG1 (pYDDG1) ([2]; substrate 2.0 mg/ml): +

SMILES: N[C@@H](Cc1ccccc1)C(=O)O [L-phenylalanine]
- Growth after 44 h TG1 (pUC19) ([1]; substrate 20.0 mg/ml): −
- Growth after 44 h TG1 (pYDDG2) ([3]; substrate 20.0 mg/ml): ±
- Growth after 44 h TG1 (pYDDG1) ([2]; substrate 20.0 mg/ml): +
